{"source": "patent US10787442B2", "about": "“Modulators of indoleamine 2,3-dioxygenase” (GLAXOSMITHKLINE INTELLECTUAL PROPERTY DEVELOPMENT LIMITED, priority 2016, dated 2020)", "key": {"[1]": {"assay": "Toxicokinetics in Beagle dogs, 7 day repeat oral administration", "type": "in vivo, Beagle dog", "settings": "for Tmax / Cmax / AUC(0-t): Beagle, dog, plasma; for Therapeutic Index AUC (0-12 hr): versus predicted human efficacious AUC; for Therapeutic Index Cmax: versus predicted human efficacious Cmax; for Cmax / AUC(0-t): po; for AUC(0-t): read-out: AUC (0-12 hr)", "description": "(§1) To understand its toxicokinetics and potential effect on hepatic functions, EXAMPLE 6 was orally dosed to Beagle dogs for 7 consecutive days."}, "[2]": {"biological_target": "T1, ePL tagged IDO1 (Homo sapiens, UniProt P14902)", "T1 construct": "expressed in transfected cells; host or cells: HeLa cells transduced with BacMam virus", "T1 sequence (P14902 whole entry)": "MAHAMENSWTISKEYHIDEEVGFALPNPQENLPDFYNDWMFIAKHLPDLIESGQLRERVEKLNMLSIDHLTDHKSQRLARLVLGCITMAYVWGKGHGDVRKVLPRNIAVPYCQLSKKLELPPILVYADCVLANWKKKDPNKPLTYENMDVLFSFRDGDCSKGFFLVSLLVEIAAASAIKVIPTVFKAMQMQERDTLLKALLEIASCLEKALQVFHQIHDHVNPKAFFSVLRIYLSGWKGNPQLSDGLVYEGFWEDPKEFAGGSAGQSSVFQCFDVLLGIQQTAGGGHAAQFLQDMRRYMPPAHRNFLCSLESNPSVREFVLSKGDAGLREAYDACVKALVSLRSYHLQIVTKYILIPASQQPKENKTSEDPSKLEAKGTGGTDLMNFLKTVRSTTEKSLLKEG", "assay": "CETSA (Cellular Thermal Shifting assay)", "type": "binding", "settings": "Hela cells, 3 hours at 37° C., heated at 53° C. for 3 min", "procedure": "Cellular Thermal Shifting assays were used to directly monitor the ligand binding to target proteins in cells. Hela cells were transduced with BacMam virus expressing ePL tagged IDO1 overnight. The cells were then plated over the compounds for 3 hours at 37° C. in cell culture medium containing 1% FBS. The plates were then sealed and heated at 53° C. for 3 min. InCell Hunter reagents were added and luminescence was read in 90 min."}, "[3]": {"tested_on": "human epithelial HeLa cells", "assay": "HeLa cytotoxicity assay (CellTiter-Glo)", "type": "cell-based", "settings": "cytotoxicity in stimulated HeLa cells, recorded as pCC50", "procedure": "Compounds of the present invention were tested via high-throughput cellular assays utilizing detection of kynurenine via mass spectrometry and cytotoxicity as end-points. […] Compounds with IDO1 inhibitory properties decreased the amount of kynurenine produced by the cells via the tryptophan catabolic pathway. Cellular toxicity due to the effect of compound treatment was measured using CellTiter-Glo® reagent (CTG) (Promega Corporation, Madison, Wis.), which is based on luminescent detection of ATP, an indicator of metabolically active cells.\nIn preparation for the assays, test compounds were serially diluted 3-fold in DMSO from a typical top concentration of 1 mM or 5 mM and plated at 0.5 μL in 384-well, polystyrene, clear bottom, tissue culture treated plates with lids (Greiner Bio-One, Kremsmünster, Austria) to generate 11-point dose response curves. Low control wells (0% kynurenine or 100% cytotoxicity) contained either 0.5 μL of DMSO in the presence of unstimulated (−IFN-γ) HeLa cells for the mass spectrometry assay or 0.5 μL of DMSO in the absence of cells for the cytotoxicity assay, and high control wells (100% kynurenine or 0% cytotoxicity) contained 0.5 μL of DMSO in the presence of stimulated (+IFN-γ) HeLa cells for both the mass spectrometry and cytotoxicity assays.\nFrozen stocks of HeLa cells were washed and recovered in DMEM high glucose medium with HEPES (Thermo Fisher Scientific, Inc., Waltham, Mass.) supplemented with 10% v/v certified fetal bovine serum (FBS) (Thermo Fisher Scientific, Inc., Waltham, Mass.), and 1× penicillin-streptomycin antibiotic solution (Thermo Fisher Scientific, Inc., Waltham, Mass.). The cells were diluted to 100,000 cells/mL in the supplemented DMEM medium. 50 μL of either the cell suspension, for the mass spectrometry assay, or medium alone, for the cytotoxicity assay, were added to the low control wells, on the previously prepared 384-well compound plates, resulting in 5,000 cells/well or 0 cells/well respectively. IFN-γ was added to the remaining cell suspension at a final concentration of 10 nM, and 50 μL of the stimulated cells were added to all remaining wells on the 384-well compound plates. The plates, with lids, were then placed in a 37° C., 5% CO2 humidified incubator for 2 days.\nFollowing incubation, the 384-well plates were removed from the incubator and allowed to equilibrate to room temperature for 30 minutes. For the cytotoxicity assay, CellTiter-Glo® was prepared according to the manufacturer's instructions, and 10 μL were added to each plate well. After a twenty minute incubation at room temperature, luminescence was read on an EnVision® Multilabel Reader (PerkinElmer Inc., Waltham, Mass.). For the mass spectrometry assay, 10 μL of supernatant from each well of the compound-treated plates were added to 40 μL of acetonitrile, containing 10 μM of an internal standard for normalization, in 384-well, polypropylene, V-bottom plates (Greiner Bio-One, Kremsmünster, Austria) to extract the organic analytes. Following centrifugation at 2000 rpm for 10 minutes, 10 μL from each well of the acetonitrile extraction plates were added to 90 μL of sterile, distilled H2O in 384-well, polypropylene, V-bottom plates for analysis of kynurenine and the internal standard on the RapidFire 300 (Agilent Technologies, Santa Clara, Calif.) and 4000 QTRAP MS (SCIEX, Framingham, Mass.). MS data were integrated using Agilent Technologies' RapidFire Integrator software, and data were normalized for analysis as a ratio of kynurenine to the internal standard."}, "[4]": {"assay": "Tolerability and hepatic functions in Beagle dogs, 7 day repeat oral administration", "type": "in vivo, Beagle dog", "description": "as §1"}, "[5]": {"settings": "female, 20 mg/kg, Day1, Female, 20 mg/kg PO BID"}, "[6]": {"settings": "female, 20 mg/kg, Day7, Female, 20 mg/kg PO BID"}, "[7]": {"settings": "male, 20 mg/kg, Day1, Male, 20 mg/kg PO BID"}, "[8]": {"settings": "male, 20 mg/kg, Day7, Male, 20 mg/kg PO BID"}}, "note": "Where two headings read alike, the source gives them in different places."}
{"compound": "CC(C)CN(c1ncc([C@H](C)CC(=O)O)cc1Nc1ccc(Cl)cn1)C1CCOCC1", "note": "[Example 6, (R)-3-(5-((5-chloropyridin-2-yl)amino)-6-(isobutyl(tetrahydro-2H-pyran-4-yl)amino)pyridin-3-yl)butanoic acid]", "values": [{"measurement": "Tmax", "setting": "[1]; oral, 20 mg/kg, post dose on Days 1 and 7", "result": 30, "unit": "min"}, {"measurement": "Tmax", "setting": "[1]; Day1, Female, 20 mg/kg PO BID", "result": 30, "unit": "min"}, {"measurement": "Tmax", "setting": "[1]; Day1, Male, 20 mg/kg PO BID", "result": 30, "unit": "min"}, {"measurement": "Therapeutic Index AUC (0-12 hr)", "setting": "[1]; Day1, Female, 20 mg/kg", "result": 15}, {"measurement": "Therapeutic Index Cmax", "setting": "[1]; Day1, Female, 20 mg/kg", "result": 86}, {"measurement": "Therapeutic Index AUC (0-12 hr)", "setting": "[1]; Day1, Male, 20 mg/kg", "result": 25}, {"measurement": "Therapeutic Index Cmax", "setting": "[1]; Day1, Male, 20 mg/kg", "result": 237}, {"measurement": "average therapeutic coverage in AUC for the predicted human efficacious dose", "setting": "[1]; Day 7", "result": "~34", "unit": "fold"}, {"measurement": "average therapeutic coverage in Cmax for the predicted human efficacious dose", "setting": "[1]; Day 7", "result": "~147", "unit": "fold"}, {"measurement": "Therapeutic Index AUC (0-12 hr)", "setting": "[1]; Day7, Female, 20 mg/kg", "result": 51}, {"measurement": "Therapeutic Index Cmax", "setting": "[1]; Day7, Female, 20 mg/kg", "result": 102}, {"measurement": "Therapeutic Index AUC (0-12 hr)", "setting": "[1]; Day7, Male, 20 mg/kg", "result": 18}, {"measurement": "Therapeutic Index Cmax", "setting": "[1]; Day7, Male, 20 mg/kg", "result": 191}, {"measurement": "quantifiable in plasma post the start of the oral dose", "setting": "[1]; Days 1 and 7", "result": "up to 24 hours"}, {"measurement": "Cmax on Days 1 and 7", "setting": "[1]; female dog", "result": "comparable"}, {"measurement": "increase in AUC0-12 following 7 day repeat dosing", "setting": "[1]; female dog", "result": "~3", "unit": "fold"}, {"measurement": "Cmax", "setting": "[1]; [5]", "result": 3700, "unit": "ng/mL"}, {"measurement": "AUC(0-t)", "setting": "[1]; [5]", "result": 5200, "unit": "ng·h/mL"}, {"measurement": "Cmax", "setting": "[1]; [6]", "result": 4400, "unit": "ng/mL"}, {"measurement": "AUC(0-t)", "setting": "[1]; [6]", "result": 17900, "unit": "ng·h/mL"}, {"measurement": "systemic exposure (Cmax and AUC0-12 values) on Days 1 and 7", "setting": "[1]; male dog", "result": "similar"}, {"measurement": "Cmax", "setting": "[1]; [7]", "result": 10200, "unit": "ng/mL"}, {"measurement": "AUC(0-t)", "setting": "[1]; [7]", "result": 8700, "unit": "ng·h/mL"}, {"measurement": "Cmax", "setting": "[1]; [8]", "result": 8200, "unit": "ng/mL"}, {"measurement": "AUC(0-t)", "setting": "[1]; [8]", "result": 6500, "unit": "ng·h/mL"}, {"measurement": "EC50", "setting": "[2]; first value, read-out: pXC50_1 (converted)", "result": 575, "unit": "nM"}, {"measurement": "EC50", "setting": "[2]; second value, read-out: pXC50_2 (converted)", "result": 759, "unit": "nM"}, {"measurement": "HELA_IDO1_TOX_PXC50", "setting": "[3]", "result": "<5"}, {"measurement": "clinical observations", "setting": "[4]; 20 mg/kg PO BID for 7 days", "result": "no clinical observations"}, {"measurement": "tolerability throughout the study", "setting": "[4]; 20 mg/kg PO BID for 7 days", "result": "well tolerated"}, {"measurement": "Hepatic functions measured by serum ALT, AST, ALP and T-Bil levels", "setting": "[4]; 20 mg/kg PO BID for 7 days, FIG. 2", "result": "in the normal variable ranges"}, {"measurement": "Body weights", "setting": "[4]; male and female dogs over the study, FIG. 1", "result": "constant"}]}
